These results are taken from patent US20240384236A1, “3D RECONSTITUTED BONE MARROW NICHE AND USES THEREOF” (The University of Hong Kong, priority 2023, published 2024).

Like-named read-outs stand apart in the source and are kept apart here.

This assay relates to primary AML cells. The assay is described as follows: Sample drug screening: viability of primary AML cells (PrestoBlue) after 24 h drug exposure in nine culture conditions. To be noted: for IC50: Homo sapiens; for sensitivity of AML cells to the drug: co-culture with AML MSC-derived niches; for chemosensitivity of primary AML cells towards the drug: co-culture with healthy 3DON.

On to `COc1cccc2c1C(=O)c1c(O)c3c(c(O)c1C2=O)C[C@@](O)(C(C)=O)C[C@@H]3O[C@H]1C[C@H](N)[C@H](O)[C@H](C)O1` [daunorubicin], for which the “sensitivity of AML cells to the drug” value is reported as “less sensitive” and the “chemosensitivity of primary AML cells towards the drug” value is reported as “increase the chemosensitivity”. Besides, the IC50 (read-out: IC50 daunorubicin, primary AML cells co-cultured with AML 2DMN) stood at 74 µM. The IC50 (read-out: IC50 daunorubicin, primary AML cells co-cultured with AML 3DMN) is 55.9 µM. Besides, the IC50 (read-out: IC50 daunorubicin, primary AML cells co-cultured with AML 3DON) amounted to 43.4 µM. For the same molecule, the IC50 (read-out: IC50 daunorubicin, primary AML cells co-cultured with healthy 2DMN) amounted to 0.571 µM. Further, the IC50 (read-out: IC50 daunorubicin, primary AML cells co-cultured with healthy 3DMN) is 3.31 µM. Moreover, for the setting “read-out: IC50 daunorubicin, primary AML cells in NC1 (AML medium)”, the IC50 came out at 0.0486 µM. In addition, the IC50 (read-out: IC50 daunorubicin, primary AML cells in NC2 (MSC medium)) came out at 0.525 µM. For the setting “read-out: IC50 daunorubicin, primary AML cells in PC (engineered growth factor cocktail medium)”, the IC50 came out at 34.3 µM.

For the molecule `COc1cccc2c1C(=O)c1c(O)c3c(c(O)c1C2=O)C[C@@](O)(C(=O)CO)C[C@@H]3O[C@H]1C[C@H](N)[C@H](O)[C@H](C)O1` [doxorubicin], the “sensitivity of AML cells to the drug” value is given as “less sensitive” and the “chemosensitivity of primary AML cells towards the drug” value is listed as “increase the chemosensitivity”.

What is called IC50 is the concentration that inhibits the measured activity by half.
